Values belong to the compound of their own block, whether it stands above or below them. Activity calls are given as the source filed them. The rule behind the calls is not given here.
What was measured:
HCT-116 [1] = experiment: Antiproliferative activity against MTAP deleted human HCT-116 cells assessed as inhibition of cell viability by luminescence based cell titer-glo assay; assay type: functional
HCT-116 [2] = experiment: Antiproliferative activity against MTAP wild type human HCT-116 cells assessed as inhibition of cell viability by luminescence based cell titer-glo assay; assay type: functional
[3] = Selectivity ratio of IC50 for antiproliferative activity against MTAP wild type human HCT-116 cells to IC50 for antiproliferative activity against MTAP deleted human HCT-116 cells; assay type: functional
[4] = target: T1, Protein arginine N-methyltransferase 5 (Homo sapiens, UniProt O14744); experiment: In vivo inhibition of PRMT5 in female BALB/c nude mouse xenografted with human Lu-99 cell line assessed as inhibition of SDMA level at 200 mg/kg administered once daily via oral gavage by Western blot analysis relative to control; assay type: functional, organism-based; design: scale not given: the % may be the effect or the level left
Lu-99 cell line [5] = experiment: Antitumor activity against human Lu-99 cell line xenografted in female BALB/c nude mouse model assessed as tumor growth inhibition at 200 mg/kg administered once daily via oral gavage and measured upto 21 days by caliper method relative to control; assay type: functional; design: scale not given: the % may be the effect or the level left; conditions: time <= 21 day
Lu-99 cell line [6] = experiment: Antitumor activity against human Lu-99 cell line xenografted in female BALB/c nude mouse model assessed as tumor growth inhibition at 100 mg/kg administered once daily via oral gavage and measured upto 21 days by caliper method relative to control; assay type: functional; design: scale not given: the % may be the effect or the level left; conditions: time <= 21 day
BT-20 = experiment: Antiproliferative activity against MTAP wild type human BT-20 cells assessed as inhibition of cell viability measured after 10 days by luminescence based cell titer-glo assay; assay type: functional; conditions: BT-20, 240 h
Lu-99 cell line [7] = experiment: Antitumor activity against human Lu-99 cell line xenografted in female BALB/c nude mouse model assessed as tumor growth inhibition administered once daily via oral gavage and measured upto 21 days by caliper method; assay type: functional; conditions: dose 25-200 mg/kg, time <= 21.0 day
[8] = Antiproliferative activity against MTAP null human HCC15 cells assessed as inhibition of cell viability measured after 10 days by luminescence based cell titer-glo assay; assay type: functional; conditions: HCC15, 240 h
[9] = target: T1, Protein arginine N-methyltransferase 5; experiment: Inhibition of PRMT5 in MTAP deleted human Lu-99 cell line assessed as decrease pRb (Ser807/811) level at upto 1000 nM measured after 5 days by Western blot analysis; assay type: cell-based; conditions: time 5.0 day
Lu-99 cell line [10] = experiment: Antitumor activity against human Lu-99 cell line xenografted in female BALB/c nude mouse model assessed as tumor growth inhibition at 50 mg/kg administered once daily via oral gavage and measured upto 21 days by caliper method relative to control; assay type: functional; design: scale not given: the % may be the effect or the level left; conditions: time <= 21 day
[11] = Cmax in male CD-1 mouse at 5 mg/kg, po or 1 mg/kg, iv measured upto 24 hrs; assay type: ADME, organism-based; conditions: in vivo
[12] = Cmax in male Sprague-Dawley rat at 5 mg/kg, po or 1 mg/kg, iv measured upto 24 hrs; assay type: ADME, organism-based; conditions: in vivo
[13] = AUC (0 to 24 hrs) in male Beagle dog at 3 mg/kg, po or 1 mg/kg, iv measured upto 24 hrs; assay type: ADME, organism-based, Canis lupus familiaris; conditions: in vivo
[14] = target: T1, Protein arginine N-methyltransferase 5; experiment: Inhibition of PRMT5 (unknown origin)
[15] = AUC (0 to 24 hrs) in male CD-1 mouse at 5 mg/kg, po or 1 mg/kg, iv measured upto 24 hrs; assay type: ADME, organism-based; conditions: in vivo
Lu-99 cell line [16] = experiment: Antiproliferative activity against MTAP null human Lu-99 cell line assessed as inhibition of cell viability measured after 10 days by luminescence based cell titer-glo assay; assay type: functional; conditions: Lu-99, 240 h
[17] = Volume of distribution at steady state in male Sprague-Dawley rat at 5 mg/kg, po or 1 mg/kg, iv measured upto 24 hrs; assay type: ADME, organism-based; conditions: in vivo
[18] = target: T1, Protein arginine N-methyltransferase 5; experiment: In vivo inhibition of PRMT5 in female BALB/c nude mouse xenografted with human Lu-99 cell line assessed as inhibition of SDMA level administered once daily via oral gavage by Western blot analysis; assay type: functional, organism-based; conditions: dose 25-200 mg/kg
[19] = target: T1, Protein arginine N-methyltransferase 5; experiment: Inhibition of PRMT5 in MTAP deleted human Lu-99 cell line assessed as increase in p21 level at upto 1000 nM measured after 5 days by Western blot analysis; assay type: cell-based; conditions: time 5.0 day
[20] = Oral bioavailability in male Sprague-Dawley rat at 5 mg/kg or 1 mg/kg, iv measured upto 24 hrs; assay type: ADME, organism-based; conditions: in vivo
[21] = Cmax in male Beagle dog at 3 mg/kg, po or 1 mg/kg, iv measured upto 24 hrs; assay type: ADME, organism-based, Canis lupus familiaris; conditions: in vivo
[22] = target: T1, Protein arginine N-methyltransferase 5; experiment: In vivo inhibition of PRMT5 in female BALB/c nude mouse xenografted with human Lu-99 cell line assessed as inhibition of SDMA level at 25 mg/kg administered once daily via oral gavage by Western blot analysis relative to control; assay type: functional, organism-based; design: scale not given: the % may be the effect or the level left
[23] = Toxicity in female BALB/c nude mouse assessed as drug tolerance at 25 to 200 mg/kg, po administered once daily for 21 days; assay type: organism-based; conditions: in vivo, 504 h, dose 25-200 mg/kg, time 21 day
HCC95 = experiment: Antiproliferative activity against MTAP wild type human HCC95 cells assessed as inhibition of cell viability measured after 10 days by luminescence based cell titer-glo assay; assay type: functional; conditions: HCC95, 240 h
[24] = target: T1, Protein arginine N-methyltransferase 5; experiment: Inhibition of PRMT5 in MTAP deleted human Lu-99 cell line assessed as increase in gammaH2AX level at upto 1000 nM measured after 5 days by Western blot analysis; assay type: cell-based; conditions: time 5.0 day
[25] = Oral bioavailability in male Beagle dog at 3 mg/kg or 1 mg/kg, iv measured upto 24 hrs; assay type: ADME, organism-based, Canis lupus familiaris; conditions: in vivo
[26] = target: T1, Protein arginine N-methyltransferase 5; experiment: Inhibition of PRMT5 in MTAP deleted human Lu-99 cell line assessed as reduction in SDMA level at upto 1000 nM measured after 5 days by Western blot analysis; assay type: cell-based; conditions: time 5.0 day
[27] = target: T1, Protein arginine N-methyltransferase 5; experiment: In vivo inhibition of PRMT5 in female BALB/c nude mouse xenografted with human Lu-99 cell line assessed as inhibition of SDMA level at 50 mg/kg administered once daily via oral gavage by Western blot analysis relative to control; assay type: functional, organism-based; design: scale not given: the % may be the effect or the level left
[28] = Oral bioavailability in male CD-1 mouse at 5 mg/kg or 1 mg/kg, iv measured upto 24 hrs; assay type: ADME, organism-based; conditions: in vivo
[29] = Toxicity in female BALB/c nude mouse assessed as effect on body weight loss at 25 to 200 mg/kg, po administered once daily for 21 days; assay type: organism-based; conditions: in vivo, 504 h, dose 25-200 mg/kg, time 21 day
Lu-99 cell line [30] = experiment: Antitumor activity against human Lu-99 cell line xenografted in female BALB/c nude mouse model assessed as tumor growth inhibition at 25 mg/kg administered once daily via oral gavage and measured upto 21 days by caliper method relative to control; assay type: functional; design: scale not given: the % may be the effect or the level left; conditions: time <= 21 day
[31] = AUC (0 to 24 hrs) in male Sprague-Dawley rat at 5 mg/kg, po or 1 mg/kg, iv measured upto 24 hrs; assay type: ADME, organism-based; conditions: in vivo
MDA-MB-436 = experiment: Antiproliferative activity against MTAP wild type human MDA-MB-436 cells assessed as inhibition of cell viability measured after 10 days by luminescence based cell titer-glo assay; assay type: functional; conditions: MDA-MB-436, 240 h
[32] = Antiproliferative activity against MTAP wild type human KURAMOCHI cells assessed as inhibition of cell viability measured after 10 days by luminescence based cell titer-glo assay; assay type: functional; conditions: 240 h
DOHH-2 = experiment: Antiproliferative activity against MTAP null human DOHH-2 cells assessed as inhibition of cell viability measured after 10 days by luminescence based cell titer-glo assay; assay type: functional; conditions: DOHH-2, 240 h
[33] = target: T1, Protein arginine N-methyltransferase 5; experiment: In vivo inhibition of PRMT5 in female BALB/c nude mouse xenografted with human Lu-99 cell line assessed as inhibition of SDMA level at 100 mg/kg administered once daily via oral gavage by Western blot analysis relative to control; assay type: functional, organism-based; design: scale not given: the % may be the effect or the level left
[34] = Antiproliferative activity against MTAP null human NCI-H647 cells assessed as inhibition of cell viability measured after 10 days by luminescence based cell titer-glo assay; assay type: functional; conditions: NCI-H647, 240 h
[35] = target: T1, Protein arginine N-methyltransferase 5; experiment: Inhibition of PRMT5 (unknown origin) in presence of MTA
[36] = Volume of distribution at steady state in male Beagle dog at 3 mg/kg, po or 1 mg/kg, iv measured upto 24 hrs; assay type: ADME, organism-based, Canis lupus familiaris; conditions: in vivo
[37] = Volume of distribution at steady state in male CD-1 mouse at 5 mg/kg, po or 1 mg/kg, iv measured upto 24 hrs; assay type: ADME, organism-based; conditions: in vivo

T1 sequence (O14744 whole entry): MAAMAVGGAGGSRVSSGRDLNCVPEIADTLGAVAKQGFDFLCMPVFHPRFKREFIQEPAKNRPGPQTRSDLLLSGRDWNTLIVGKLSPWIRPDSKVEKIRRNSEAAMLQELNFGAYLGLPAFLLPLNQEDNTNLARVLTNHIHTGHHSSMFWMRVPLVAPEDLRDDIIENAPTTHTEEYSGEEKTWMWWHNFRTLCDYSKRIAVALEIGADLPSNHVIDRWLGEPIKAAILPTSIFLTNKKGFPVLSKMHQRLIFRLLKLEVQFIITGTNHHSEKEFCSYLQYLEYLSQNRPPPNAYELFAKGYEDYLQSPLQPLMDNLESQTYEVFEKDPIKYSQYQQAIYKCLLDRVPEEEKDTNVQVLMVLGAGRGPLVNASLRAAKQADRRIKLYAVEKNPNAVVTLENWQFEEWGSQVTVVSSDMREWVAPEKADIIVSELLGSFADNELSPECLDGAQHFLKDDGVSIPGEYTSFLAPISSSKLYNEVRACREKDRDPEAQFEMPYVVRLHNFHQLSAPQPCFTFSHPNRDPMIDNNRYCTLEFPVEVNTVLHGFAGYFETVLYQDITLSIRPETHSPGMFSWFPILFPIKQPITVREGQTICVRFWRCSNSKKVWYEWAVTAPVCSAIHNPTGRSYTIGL

IC50 (HCT-116 [1]): > 10 µM
SMILES: CN(C(=O)c1ccc2nc(N)c3c(c2c1)COC3)[C@@H]1CCCN(c2ccccc2)C1

IC50 (HCT-116 [2]): > 10 µM | IC50 (HCT-116 [1]): 0.641 µM
SMILES: CN(C(=O)c1ccc2nc(N)c3c(c2c1)COC3)[C@@H]1CCN(c2ccc(S(C)(=O)=O)cc2)C1

SMILES: Cc1cc2cc(C(=O)N(Cc3ccc(C(F)(F)F)cn3)C(C)c3ncccn3)ccc2nc1N (stereo unspecified)
Ratio IC50 [3]: 31

IC50 (HCT-116 [2]): 6.62 µM | IC50 (HCT-116 [1]): 0.317 µM
SMILES: CN(C(=O)c1ccc2nc(N)c3c(c2c1)COC3)[C@@H]1CCN(c2cccc(C#N)c2)C1

Activity [4]: 85% | IC50 (BT-20): > 10 µM | inhibition [9]: Active | Cmax [11]: 1.72 µg/mL | IC50 (HCT-116 [2]): 1.9 µM | Cmax [12]: 1.02 µg/mL | AUC [13]: 6.14 µg·h/mL | IC50 [14]: 0.068 µM | AUC [15]: 6.9 µg·h/mL | Vdss [17]: 1.52 L/kg | Activity [18]: Dose-dependent-effect | inhibition [19]: Active | bioavailability [20]: 81% | Cmax [21]: 0.804 µg/mL | Activity [22]: 43% | IC50 (HCC95): 2.73 µM | inhibition [24]: Active | bioavailability [25]: 82.5% | inhibition [26]: Active | Activity [27]: 49% | bioavailability [28]: 105% | AUC [31]: 5.61 µg·h/mL | IC50 (MDA-MB-436): 4.87 µM | Activity [33]: 68% | IC50 [35]: 0.0047 µM | Vdss [36]: 1.87 L/kg | IC50 (HCT-116 [1]): 0.015 µM
SMILES: CN(C(=O)c1cc2c3c(c(N)nc2cc1F)COC3)[C@@H]1CCN(c2ccc(C#N)cc2)C1
Activity (Lu-99 cell line [5]): 102% | Activity (Lu-99 cell line [6]): 94% | Activity (Lu-99 cell line [7]): Dose-dependent-effect | IC50 [8]: 0.0066 µM | Activity (Lu-99 cell line [10]): 76% | IC50 (Lu-99 cell line [16]): 0.0219 µM | Activity [23]: Non-toxic | Activity [29]: Non-toxic | Activity (Lu-99 cell line [30]): 71% | IC50 [32]: 2.96 µM | IC50 (DOHH-2): 0.0209 µM | IC50 [34]: 0.118 µM

IC50 (HCT-116 [1]): 1.57 µM
SMILES: CN(C(=O)c1ccc2nc(N)c3c(c2c1)COC3)[C@@H]1CCN(c2ccc(C3CC3)cc2)C1

IC50 (HCT-116 [1]): 3.17 µM
SMILES: N#Cc1ccc(N2C[C@@H]3C[C@H]2CN3C(=O)c2ccc3nc(N)c4c(c3c2)COC4)cc1

IC50 (HCT-116 [1]): 2.45 µM
SMILES: Nc1nc2ccc(C(=O)N3C[C@H]4C[C@@H]3CN4c3ccccc3)cc2c2c1COC2

IC50 (HCT-116 [1]): 1.59 µM
SMILES: CN(C(=O)c1ccc2nc(N)c3c(c2c1)COC3)C1CN(c2ccccc2)C1

IC50 (HCT-116 [2]): 7.82 µM | IC50 (HCT-116 [1]): 0.095 µM
SMILES: CN(C(=O)c1ccc2nc(N)c3c(c2c1)COC3)[C@@H]1CCN(c2ccc(C#N)cc2)C1
Ratio IC50 [3]: 82

SMILES: Cn1ncc(-c2ccc3c(=O)[nH]nc(CN)c3c2)c1-c1c(F)c(Cl)cc(OC2CC2)c1C#N
Ratio IC50 [3]: 73

Vdss [37]: 2.84 L/kg | Cmax [11]: 0.611 µg/mL | IC50 (HCT-116 [2]): 1.18 µM | Cmax [12]: 0.496 µg/mL | AUC [15]: 1.72 µg·h/mL | Vdss [17]: 1.29 L/kg | bioavailability [20]: 46.1% | bioavailability [28]: 83.1% | AUC [31]: 2.31 µg·h/mL | IC50 (HCT-116 [1]): 0.007 µM
SMILES: Cc1cc2nc(N)c3c(c2cc1C(=O)N(C)[C@@H]1CCN(c2ccc(C#N)cc2)C1)COC3
Ratio IC50 [3]: 169

IC50 (HCT-116 [2]): > 10 µM | IC50 (HCT-116 [1]): 0.211 µM
SMILES: CN(C(=O)c1ccc2nc(N)c3c(c2c1)COC3)[C@@H]1CCN(c2ccc(-c3cnn(C)c3)cc2)C1

From ChEMBL document CHEMBL6087483 (J Med Chem, 2025)
